In patent publication US12318366B2, “Pharmaceutical combination and composition, and combination preparation containing glucokinase activator and biguanide hypoglycemic drug as well as preparation method and use thereof” (HUA Medicine (Shanghai) Ltd., priority 2018, dated 2025):
Counter-ions that a name gives are not always drawn.

System: patients with type II diabetes
Assay: Clinical study on the combination of HMS5552 and metformin hydrochloride: blood glucose after the meal
Type: in vivo, human
Conditions: 13 type II diabetes patients; oral; metformin hydrochloride 500 mg (day 3), 500 mg + HMS5552 50 mg (day 8), HMS5552 50 mg (day 13); meal 30 minutes after administration
Method: 13 patients with type II diabetes were enrolled, who have been given a stable dose of metformin hydrochloride at 1000 mg/day for at least 14 days at the time of enrollment. On the 1st and 2nd day of the study, 500 mg of metformin hydrochloride was given orally daily both in the morning and in the evening; on the 3rd day, 500 mg of metformin hydrochloride was given once in the morning; on each day of the 4th to 7th day, 500 mg of metformin hydrochloride and 50 mg of HMS5552 were given daily both in the morning and in the evening; on the 8th day, 500 mg of metformin hydrochloride and 50 mg of HMS5552 were given once in the morning; on each day of 9th to 12th day, 50 mg of HMS5552 was given orally daily both in the morning and in the evening; and on the 13th day, 50 mg of HMS5552 was given once in the morning. Meals were taken 30 minutes after each administration of the test drugs.
Plasma samples were collected after administration on the 3rd, 8th and 13th day, and the blood glucose concentrations were analyzed.

## CN(C)C(=N)N=C(N)N [metformin, metformin hydrochloride]
  area under the curve for blood glucose between 0 and 4 hours after the meal (AUECO-4h): 110.2 mg·h/dL

## CC(C)C[C@@H](C(=O)Nc1ccn(C[C@@H](O)CO)n1)N1CC(Oc2ccccc2Cl)=CC1=O [HMS5552, (S)-2-[4-(2-chloro-phenoxy)-2-oxo-2,5-dihydro-pyrrol-1-yl]-4-methyl-pentanoic acid [1-((R)-2,3-dihydroxy-propyl)-1H-pyrazol-3-yl]-amide]
  area under the curve for blood glucose between 0 and 4 hours after the meal (AUECO-4h): 72.96 mg·h/dL
